Assay results reported in publication PMC7451048 (Drug metabolism letters, 2019).

Columns and labels:
[1] = biological target: T1, OATP1B3 (Homo sapiens, UniProt Q9NPD5)
T1 sequence (Q9NPD5 1-702): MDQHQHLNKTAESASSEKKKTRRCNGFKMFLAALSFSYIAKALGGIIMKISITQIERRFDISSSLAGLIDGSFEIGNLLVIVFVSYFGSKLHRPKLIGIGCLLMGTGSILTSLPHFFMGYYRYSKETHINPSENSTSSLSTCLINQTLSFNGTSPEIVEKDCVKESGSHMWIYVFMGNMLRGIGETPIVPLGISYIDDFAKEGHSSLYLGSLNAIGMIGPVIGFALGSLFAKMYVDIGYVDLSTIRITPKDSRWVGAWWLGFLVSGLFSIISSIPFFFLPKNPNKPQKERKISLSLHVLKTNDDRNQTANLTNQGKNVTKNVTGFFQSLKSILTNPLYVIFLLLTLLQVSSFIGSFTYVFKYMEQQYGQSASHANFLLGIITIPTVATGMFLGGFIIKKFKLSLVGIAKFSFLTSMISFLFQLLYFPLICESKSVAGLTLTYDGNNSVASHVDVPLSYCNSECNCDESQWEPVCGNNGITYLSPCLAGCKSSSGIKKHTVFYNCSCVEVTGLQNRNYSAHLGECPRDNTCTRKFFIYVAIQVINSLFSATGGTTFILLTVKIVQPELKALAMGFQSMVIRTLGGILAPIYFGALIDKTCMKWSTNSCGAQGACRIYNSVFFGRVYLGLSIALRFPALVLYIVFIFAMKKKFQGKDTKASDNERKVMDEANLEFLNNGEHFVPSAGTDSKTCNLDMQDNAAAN

[2] = biological target: T2, BCRP (Homo sapiens, UniProt Q9UNQ0); assay: Plasma membrane vesicle transport assay, BCRP vesicles; assay type: in vitro ADME; details: for Difference in BCRP vesicle uptake between ATP and AMP: 10 μM, 1 min (Fig. 9)
T2 sequence (Q9UNQ0 1-655): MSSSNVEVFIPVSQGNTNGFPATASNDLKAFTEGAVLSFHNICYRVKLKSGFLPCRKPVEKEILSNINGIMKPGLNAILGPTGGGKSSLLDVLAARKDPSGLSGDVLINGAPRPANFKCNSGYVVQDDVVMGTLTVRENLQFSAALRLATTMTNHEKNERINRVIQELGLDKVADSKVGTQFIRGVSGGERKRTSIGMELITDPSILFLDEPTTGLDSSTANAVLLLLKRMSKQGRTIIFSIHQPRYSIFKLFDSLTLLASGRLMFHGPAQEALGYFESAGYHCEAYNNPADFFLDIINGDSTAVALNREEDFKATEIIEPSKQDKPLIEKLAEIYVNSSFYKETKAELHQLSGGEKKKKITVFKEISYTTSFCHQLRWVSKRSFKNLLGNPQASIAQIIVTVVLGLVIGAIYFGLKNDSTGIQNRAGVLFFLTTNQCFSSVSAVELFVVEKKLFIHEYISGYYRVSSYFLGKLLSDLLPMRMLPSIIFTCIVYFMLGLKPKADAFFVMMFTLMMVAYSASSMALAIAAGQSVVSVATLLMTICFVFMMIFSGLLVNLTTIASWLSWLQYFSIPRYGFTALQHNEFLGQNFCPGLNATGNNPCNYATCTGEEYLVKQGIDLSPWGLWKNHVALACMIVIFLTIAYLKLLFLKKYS

[3] = co-administration of clopidogrel and ticlopidine; ref [25]; cited from earlier work
[4] = higher than BUP; ref [10], [13], [16], [17]; cited from earlier work

SMILES | Substrate of OATP1B3 (conclusion) [1] | Substrate of BCRP (conclusion) [2] | Difference in BCRP vesicle uptake between ATP and AMP [2] | Decrease in AUC [3] | Circulating concentration relative to the parent drug [4]
CC(NC(C)(C)C)C(O)c1cccc(Cl)c1 (stereo not drawn) [EB, Erythrohydrobupropion] | not substrates | not substrates | No significant differences |  | 
C[C@H]1NC(C)(C)CO[C@]1(O)c1cccc(Cl)c1 [OHB, Hydroxybupropion] | not substrates | not substrates | No significant differences | 60–89% | 3 – 30 fold
C[C@H](NC(C)(C)C)[C@@H](O)c1cccc(Cl)c1 [TB, Threohydrobupropion] | not substrates | not substrates | No significant differences |  | 3 – 30 fold
